Results: patent publication US20220409692A1, “Systems Chemico-Pharmacology Drugs and Methods of Use” (The Medical College of Wisconsin, priority 2019, published 2022)
Peptide text beside a SMILES is read from it.

Legend:
[1] = tested on: lung lysates of neonatal rat pups; assay: Hyperoxia-induced BPD in neonatal rat pups: immunoblot, affinity blot and pulldown analysis of lung lysates; details: for Nrf2 activation: lung lysates
Method: The dose of KYC (5 mg/kg twice per day) was chosen based on experience treating chronic inflammation in other disease states (58, 60, 61). […] Equal volumes of PBS were injected i.p. into the remaining half of the pups as an injection control. Pups were euthanized on P10 with carbon dioxide and lungs removed en bloc. A small cut was created on the left atrium and ice-cold normal saline was gently infused through the right ventricle to flush blood from the lungs before inflation for histology or snap-frozen in liquid nitrogen for protein studies. Pups from at least three litters were used in each experiment.
Immunoblot Analysis: Whole lung lysates were obtained by homogenizing in MOPS buffer (20 mM 3-N-morpholino-propanesulfonic acid, 2 mM EGTA, 5 mM EDTA, 30 mM NaF, 10 mM β-glycerophosphate, 10 mM Na pyrophosphate, 2 mM Na orthovanadate, 1 mM PMSF, 0.5% NP-40, 1% protease inhibitor cocktail, and 1% phosphatase inhibitor cocktails 2 and 3, pH 7.0) by Bullet Blender (Next Advance, Inc., Averill Park, N.Y.). For protein immunoblots, 30 μg of protein lysate was separated by SDS-PAGE, transferred to nitrocellulose membranes (0.22 μm), and then probed with the appropriate primary antibodies overnight at 4° C. on a continuously rocking platform. Signals were generated after incubation with horseradish peroxidase-conjugated goat anti-rabbit or anti-mouse IgG (1:8,000) using Western Bright ECL Chemiluminescent HRP Substrate (Advansta Inc., Menlo Park, Calif.). Integrated optical density (IOD) was calculated using ImageJ software and normalized to β-actin, a loading control.

adult mice = assay: Review of KYC doses in previous studies in adult mice; assay type: in vivo, mouse; details: 15 mg/kg twice per day vs 800 mg/kg
Method: No KYC dose-response studies were performed in neonatal rat pups in preparation for the current study. Instead, we decided to treat neonatal rat pups empirically with KYC at 5 mg/kg twice per day based on published and unpublished data in adult mice. […] The dose of KYC used in the current study is based on our experience in treating chronic inflammation in other disease states and is within the range that we consider appropriate for neonatal rat pups and adult rats.

RLMVEC = assay: KYC thiylation of endothelial cell proteins in RLMVEC cultures; assay type: cell-based, rat
Excerpt: FIG. 29. Effects of Oxidative Stress on KYC Thiylation of RLMVEC Proteins. (A) Streptavidin affinity blot of KYC thiylated proteins from cell lysates prepared from RLMVEC cultures treated with B-KYC (baseline), B-KYC+MPO+H2O2 (MPO-dependent), and B-KYC+H2O2 (H2O2-dependent). (B) Immunoblot for Nrf2 in RLMVEC cultures treated as described in A. (C) Immunoblot for Keap1 in RLMVEC cultures treated as described in A. (D) Immunoblot for HMGB1 in RLMVEC cultures treated as described in A.(E) Immunoblot for β-Actin in RLMVEC cultures treated as described in A.(F) Bar chart showing relative levels of KYC thiylation, Nrf2, Keap1, and HMGB1 as a function of β-Actin (n=2, *=p<0.05, statistical analysis was preformed by ANOVA with appropriate post hoc tests).
FIG. 31. MPO Oxidation of KYC Increases KYC Thiylation of Extracellular HMGB1. […] This conclusion is based on the relative levels of KYC thiylated HMGB1 in panel A vs. KYC thiylated HMGB1 as a function of HMGB1 protein in conditioned media vs. RLMVEC cell lysates.
Rat lung microvascular endothelial cells (RLMVEC) from neonatal Sprague-Dawley rats (RN-6011) and rat endothelial growth medium (EGM, M1266SF) were from Cell Biologics (Chicago, Ill.). Amicon®Ultra-4 centrifugal concentrators with 3K cut-off (UFC800324) were from Merck Millipore Ltd (Carrigtwohill, Ireland). PierceTM Streptavidin (#88816), Protein G (#88848), Protein A Magnetic Beads (#88845), PierceTM ECL Western Blotting Substrate (#32106), and SuperSignalTM West Femto Maximum Sensitivity Substrate (#34095) were from Thermo Fisher Scientific (Waltham, MA). Rabbit antibodies for myeloperoxidase heavy chain (MPO, sc-33596) and TLR4 (sc-10741) were from Santa Cruz Biotechnology (Dallas, Texas). Rabbit antibody for Cl-Tyr (HP5002) was from Hycult Biotech (Plymouth Meeting, PA). The chicken antibody for HMGB1 (326052233) was from SHINO-TEST Corporation (Kanagawa, Japan). Rabbit antibody for RAGE (GTX23611) was from GeneTex (Irvine, CA). Mouse antibodies for PECAM-1/CD31 (ab24590), for 8-OH-dG (ab48508), and for rat endothelial cell antigen-1 (RECA-1, ab9774) were from Abcam (Cambridge, MA). Rabbit antibody for Cox1 (sc-7950) and Cox2 (sc-7951) were from Santa Cruz Biotechnology. Mouse (ab190377) and rabbit (ab77302b) antibodies for HMGB1, and streptavidin-HRP (ab7403) were from Abcam (Cambridge, Mass.). Rabbit antibody for acetylated-HMGB1 (OASG03545) was from Aviva System Biology (San Diego, Calif.). Rabbit antibodies for Nrf2 (sc-722) and TLR4 (sc-30002) were from Santa Cruz Biotechnology (Dallas, Tex.). Rabbit antibody against Keap1 (ABS97) and mouse antibody for β-actin (A2228) were from Millipore-Sigma (St. Louis, Mo.). Rabbit antibody for cysteine sulfonyl (ADI-OSA-820) was from Enzo Life Sciences (Farmingdale, N.Y.). Mouse antibody for glutathionylated proteins (D8) and all other chemicals were from Sigma-Aldrich (St. Louis, Mo.). All antibodies were certified either by the manufacturer or were used previously and certified by the authors, as was the case for the anti-HMGB1 antibody.
Effects of Oxidative Stress on KYC Thiylation on Endothelial Cell Proteins in RLMVEC Cultures: To determine the effects of oxidative stress on KYC thiylation, RLMVEC cultures were treated with B-KYC to follow KYC thiylation with streptavidin-affinity blotting as outlined in Methods. Three different levels of oxidative stress were used to determine the effects of oxidative stress on KYC thiylation of endothelial cell proteins: media alone (baseline); media containing MPO+H2O2 (MPO-dependent); and media containing H2O2 alone (H2O2-dependent) (FIG. 29A). KYC thiylation of RLMVEC proteins at baseline was low (FIG. 29A, first two lanes).

[2] = hyperoxic lungs, KYC vs PBS, P10
[3] = hyperoxic pups treated with KYC, P10, PBS 1.0±0.2
[4] = hyperoxic pups, KYC vs PBS, P10
[5] = lungs of hyperoxic pups, KYC vs PBS
[6] = RLMVEC cultures, baseline vs MPO-dependent vs H2O2-dependent

## CC(=O)N[C@@H](CCCCN)C(=O)N[C@@H](Cc1ccc(O)cc1)C(=O)N[C@@H](CS)C(N)=O [KYC, N-acetyl lysyltyrosylcysteine amide] (Ac-Lys-Tyr-Cys-NH2)
[1]; KYC-treated HOX group, P10, PBS-treated HOX 1.0±0.1
  CD31 levels (immunoblot, relative): 1.2±0.3
[1]; hyperoxia exposed rat pup lungs
  Nrf2 levels (FIG. 22): decreased Nrf2 levels
[1]; hyperoxia pups, KYC 5 mg/kg twice per day i.p., P10, PBS 1.0±0.1
  NO2-Tyr levels (immunoblot, relative): 0.6±0.2
[1]; hyperoxia pups, KYC 5 mg/kg twice per day i.p., P10, PBS 1.0±0.3
  MPO levels (immunoblot, relative): 0.6±0.1
[1]; hyperoxia-exposed rat pup lungs
  cell death in lungs (FIG. 20): reduces cell death
[1]; [2]
  reduction of Cl-Tyr formation: approximately 27%
  reduction of MPO protein: approximately 50%
  reduction of NO2-Tyr: approximately 32%
[1]; hyperoxic pups treated with KYC, P10, PBS 1.0±0.1
  TLR4 expression in lungs (immunoblot, relative): 0.8±0.2
[1]; [3]
  HMGB1 levels in lungs (immunoblot, relative): 0.6±0.2
  RAGE expression in lungs (immunoblot, relative): 0.5±0.2
[1]; hyperoxic pups, KYC vs PBS
  HMGB1 isoform in lung lysates (non-acetylated vs lysyl-acetylated): shifted the HMGB1 in lung lysates from the non-acetylated (HMGB1) to the lysyl-acetylated (Ac-HMGB1) isoform
  reduction of pulmonary Cox1: 20-30%
  reduction of pulmonary Cox2: 60-70%
[1]; [4]
  decrease of HMGB1 levels in lung homogenates/lysates: approximately 38%
  increase of CD31 (endothelial cells): approximately 23%
  reduction of RAGE expression: 60%
[1]; hyperoxic pups, relative to PBS-treated
  sulfonyl HMGB1 levels: increased sulfonyl HMGB1 levels
[1]; lung lysates from hyperoxic pups
  S-glutathionylation of Keap1: increased
[1]; lung lysates from hyperoxic pups, KYC vs PBS
  HMGB1 association with TLR4 (HMGB1 pulldown): decreased HMGB1 association with TLR4
[1]; lung lysates from hyperoxic pups, KYC P2-P9 then once B-KYC 5 mg/kg
  B-KYC thiylation of Keap1: increased B-KYC thiylation of Keap1
[1]; hyperoxic pups
  Nrf2 activation: increased Nrf2 activation in lung lysates from hyperoxic pups
[1]; normoxic pups
  Nrf2 activation: increased Nrf2 activation in lung lysates
[1]; [5]
  GST expression: increased
  HMGB1 association with RAGE (HMGB1 pulldown): reduced
  HO-1 expression: increased
  Trx expression: increased
Adult mice
  factor by which the higher dose is below the KYC level observed to induce adverse effects: more than 26 times
RLMVEC; [6]
  HMGB1 expression relative to β-actin: increased in RLMVEC cultures subjected to H2O2-dependent KYC thiylation
  Keap1 expression relative to β-actin: followed a pattern similar to Nrf2
  Nrf2 expression relative to β-actin: increased in RLMVEC cultures subjected to MPO-dependent KYC thiylation
RLMVEC; conditioned media, no KYC vs KYC vs MPO+H2O2+KYC
  KYC thiylation of HMGB1 released from RLMVEC cultures: greater in RLMVEC cultures incubated with MPO+H2O2+KYC
